# Earlier results in PMC8296985, “A Covalent Calmodulin Inhibitor as a Tool to Study Cellular Mechanisms of K-Ras-Driven Stemness” (Frontiers in Cell and Developmental Biology, 2021).
# System: Ca^2+/CaM-dependent cyclic nucleotide phosphodiesterase
# Design: method as in Itoh and Hidaka, 1984; Zimmer and Hofmann, 1984
# Conditions: ref Itoh and Hidaka, 1984, Zimmer and Hofmann; cited from earlier work
structure (smiles),measurement,value
NCCCCCCNS(=O)(=O)c1cccc2c(Cl)cccc12 [Compound W-7],concentration inhibiting CaM targets,> 100 µM
